Test results from BindingDB's records for doi:10.1128/AAC.00311-07 (University of California San Francisco, 2007).

These molecules were tested against T1, Lanosterol 14-alpha demethylase (Mycobacterium tuberculosis (strain CDC 1551 / Oshkosh), UniProt P9WPP8) (assay: Ligand Binding Assay). Settings: pH 7.5; 37 °C.
T1 sequence (P9WPP8 whole entry): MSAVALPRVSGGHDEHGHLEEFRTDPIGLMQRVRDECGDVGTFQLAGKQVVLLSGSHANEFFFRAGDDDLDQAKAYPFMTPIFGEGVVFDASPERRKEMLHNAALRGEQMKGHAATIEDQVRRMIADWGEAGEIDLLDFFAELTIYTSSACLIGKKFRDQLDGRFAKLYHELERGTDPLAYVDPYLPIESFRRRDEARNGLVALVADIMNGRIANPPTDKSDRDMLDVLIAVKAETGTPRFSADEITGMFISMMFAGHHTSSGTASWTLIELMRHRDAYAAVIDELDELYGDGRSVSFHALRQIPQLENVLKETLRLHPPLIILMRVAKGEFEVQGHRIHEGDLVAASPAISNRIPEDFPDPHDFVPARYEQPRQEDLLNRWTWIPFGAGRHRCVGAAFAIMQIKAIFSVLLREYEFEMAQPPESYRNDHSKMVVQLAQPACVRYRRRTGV
Source text: The assay was developed based on the optical spectral property of P450 enzyme to elicit both type I and type II spectral changes (350 nm through 450 nm). The concentration dependence of the changes allows the binding affinities of the ligands to be estimated. Titration data were linearized by plotting S0/deltaA against S0, where S0 is the total concentration of a ligand and deltaA is the change in absorption. The equilibrium dissociation constant (Kd) was extrapolated from the intercept of the linear plot with the S0 axis.

Compound	Kd [µM]
c1ccc(-c2c[nH]cn2)cc1	1300
NCC(=O)N1c2ccccc2SC2C=CC=CC21 (stereo not drawn) [1-(10,10a-dihydro-4aH-phenothiazin-10-yl)-2-aminoethan-1-one]	7.5
O=C1c2cc(O)ccc2-c2ccc(O)cc21 [2,7-Dihydroxy-9-fluorenone]	37.5
CCC1(C)CC(CCN)(c2ccc(OC)cc2)CCO1 (stereo not drawn) [2-[2-ethyl-4-(4-methoxyphenyl)-2-methyloxan-4-yl]ethan-1-amine]	7.5
COc1ccccc1C(CCN)c1ccco1 (stereo not drawn) [3-furan-2-yl-3-(2-methoxyphenyl)propan-1-amine]	7.5
O=C(Nc1ccncc1)C1(c2ccccc2)CCOCC1 [4-phenyl-N-pyridin-4-yltetrahydro-2H-pyran-4-carboxamide]	7.5
C[C@]12CCC3c4ccc(O)cc4CCC3C1C[C@@H](O)[C@@H]2O (stereo partly drawn) [Epiestriol]	100
Nc1ccc(NS(=O)(=O)c2ccc(Cl)cc2)cc1 [N-(4-aminophenyl)-4-chlorobenzene-1-sulfonamide]	7.5
